Key:
[1] = tested on: ORYSAT (Rice, Tebonnet); assay: Rice tolerance to post-transplant applications, flooded paddy conditions (Table IV); type: in vivo, Oryza sativa, (L.) Tebonnet
Summary of the method: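 Post-transplant paddy test in greenhouse: a.i. about 0.0313 to 0.500 kg/ha applied into the flood water. Plants are rated 0-9 for overall appearance relative to control three to four weeks on.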

[2] = tested on: TRZAWR (Wheat, Winter, cv Riband); assay: Preemergence herbicidal evaluation; type: in vivo, Triticum aestivum; settings: rated 4-5 weeks after treatment
Summary of the method: (§1)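 In this greenhouse assay, monocot and dicot seeds are planted in soil and treated prior to emergence with an aqueous acetone spray (about 0.0156-0.500 kg/ha). Plants are assessed visually against control on a 0-9 scale after 4-5 weeks.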

[3] = tested on: SAGPY (Arrowhead (Pygmaea)); assay: Preemergence weed control under flooded paddy conditions; type: in vivo, Sagittaria pygmaea; settings: rated 3-4 weeks after treatment
Summary of the method: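 Visual injury scored 0-9 against control three to four weeks post-treatment, greenhouse-grown. Application: acetone/water (50/50) solutions dosed directly into flood water (1.5-3 cm over silt loam, planted top 0.5 cm), roughly 0.0313 to 0.500 kg/ha active ingredient.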

[4] = tested on: ECHORC (Watergrass (Calif.)); assay: as above; type: in vivo, Echinochloa oryzoides; settings: rated 3-4 weeks after treatment
Summary of the method: (§2)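 Silt loam, seeds in top 0.5 cm; flood held 1.5-3 cm; test cpd as acetone/water 50/50 into flood water, ~0.0313-0.500 kg/ha a.i.; greenhouse 3-4 wk; visual 0-9 score vs control.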

[5] = tested on: MOOVA (Monochoria); assay: Postemergence weed control under flooded paddy conditions; type: in vivo, Monochoria vaginalis; settings: postemergence weeds, 3-4 weeks after treatment
Summary of the method: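 With weeds 3 to 5 cm tall and rice at the 1.5 to 2.5 leaf stage, containers were flooded and water held 1.5 to 3 cm above soil. Compounds in 50/50 v/v aqueous/acetone went into the flood water at about 0.0313 to 0.500 kg/ha a.i. Effects were visually rated 0–9 against controls after three to four weeks in the greenhouse.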

[6] = tested on: CYPIR (Rice Flatsedge); assay: Preemergence weed control under flooded paddy conditions; type: in vivo, Cyperus iria; settings: rated 3-4 weeks after treatment
Summary of the method: as §2

[7] = tested on: ORYSAT (Rice, Tebonnet); assay: Rice tolerance to post-transplant applications, flooded paddy conditions (Table III); type: in vivo, Oryza sativa, (L.) Tebonnet
Summary of the method: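 Two ten-day-old Tebonnet seedlings transplanted into flooded silt loam (water 1.5 to 3 cm above soil); three days later the water surface was treated with compound in aqueous/acetone 50/50 at about 0.0313 to 0.500 kg/ha. Visual 0-9 injury rating versus control after three to four weeks in greenhouse.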

[8] = tested on: ABUTH (Velvetleaf); assay: Preemergence herbicidal evaluation; type: in vivo, Abutilon theophrasti; settings: rated 4-5 weeks after treatment
Summary of the method: as §1

[9] = rate 0.0313 kg/ha, flooded paddy, post-transplant rice, 3-4 weeks after treatment
[10] = rate 0.0625 kg/ha, flooded paddy, post-transplant rice, 3-4 weeks after treatment
[11] = rate 0.1250 kg/ha, flooded paddy, post-transplant rice, 3-4 weeks after treatment
[12] = rate 0.2500 kg/ha, flooded paddy, post-transplant rice, 3-4 weeks after treatment
[13] = 0.0313 kg/ha, post-transplant rice, flooded paddy, rated 3-4 weeks after treatment
[14] = 0.0625 kg/ha, post-transplant rice, flooded paddy, rated 3-4 weeks after treatment
[15] = 0.1250 kg/ha, post-transplant rice, flooded paddy, rated 3-4 weeks after treatment
[16] = 0.2500 kg/ha, post-transplant rice, flooded paddy, rated 3-4 weeks after treatment

Row | Structure (SMILES) | Preemergence herbicidal rating TRZAWR ([2]; rate 0.0625 kg/ha) | Preemergence herbicidal rating TRZAWR ([2]; rate 0.1250 kg/ha) | Preemergence herbicidal rating TRZAWR ([2]; rate 0.2500 kg/ha) | Herbicidal rating SAGPY ([3]; 0.0625 kg/ha) | Herbicidal rating SAGPY ([3]; 0.1250 kg/ha) | Herbicidal rating SAGPY ([3]; 0.2500 kg/ha) | Herbicidal rating ECHORC ([4]; 0.0625 kg/ha) | Herbicidal rating ECHORC ([4]; 0.1250 kg/ha) | Herbicidal rating ECHORC ([4]; 0.2500 kg/ha) | Herbicidal rating MOOVA ([5]; rate 0.0625 kg/ha) | Herbicidal rating MOOVA ([5]; rate 0.1250 kg/ha) | Herbicidal rating MOOVA ([5]; rate 0.2500 kg/ha) | Herbicidal rating CYPIR ([6]; 0.0625 kg/ha) | Herbicidal rating CYPIR ([6]; 0.1250 kg/ha) | Herbicidal rating CYPIR ([6]; 0.2500 kg/ha) | Preemergence herbicidal rating ABUTH ([8]; rate 0.0625 kg/ha) | Preemergence herbicidal rating ABUTH ([8]; rate 0.1250 kg/ha) | Preemergence herbicidal rating ABUTH ([8]; rate 0.2500 kg/ha) | Preemergence herbicidal rating TRZAWR ([2]; rate 0.0313 kg/ha) | Preemergence herbicidal rating ABUTH ([8]; rate 0.0313 kg/ha) | further results
1 | Cn1c(C(F)(F)F)cc(=O)n(-c2cc(N=C3SCC(=O)N3CCC(=O)O)c(Cl)cc2F)c1=O [Compound 31, 2-{{2-Chloro-5-[3,6-dihydro-3-methyl-2,6-dioxo-4-(trifluoromethyl)-1(2H)-pyrimidinyl]-4-fluoro-phenyl}imino}-4-oxo-3-thiazolidinepropionic acid] | 0.0 | 3.0 | 7.0 | 0.0 | 0.0 | 0.0 | 1.0 | 2.0 | 5.0 | 0.0 | 0.0 | 2.5 | 0.0 | 0.0 | 2.5 | 0.0 | 9.0 | 9.0 | – | – | Herbicidal rating ORYSAT (rice tolerance) ([1]; in vivo): 0.0; Herbicidal rating ORYSAT (rice tolerance) ([7]; in vivo): 0.0
2 | CCOC(=O)COc1ccccc1CC1S/C(=N/c2cc(-n3c(=O)cc(C(F)(F)F)n(C)c3=O)c(F)cc2Cl)N(CC(=O)OCC)C1=O (centres unmarked) [Compound 42, 2-{{2-Chloro-5-[3,6-dihydro-3-methyl-2,6-dioxo-4-(trifluoromethyl)-1(2H)-pyrimidinyl]-4-fluoro-phenyl}imino}-5-(o-hydroxybenzyl)-4-oxo-3-thiazolidineacetic acid, ethyl ester, ester with ethyl glycolate] | 0.0 | 0.0 | 0.0 | 0.0 | 0.0 | 3.0 | 5.0 | 5.0 | 6.0 | 9.0 | 9.0 | 9.0 | 0.0 | 0.0 | 0.0 | 1.0 | 9.0 | 9.0 | 0.0 | 1.0 | Herbicidal rating ORYSAT (rice tolerance) [1, 9]: 0.0; Herbicidal rating ORYSAT (rice tolerance) [1, 10]: 0.0; Herbicidal rating ORYSAT (rice tolerance) [1, 11]: 0.0; Herbicidal rating ORYSAT (rice tolerance) [1, 12]: 0.0; Herbicidal rating SAGPY ([3]; 0.0313 kg/ha): 0.0; Herbicidal rating ECHORC ([4]; 0.0313 kg/ha): 5.0; Herbicidal rating MOOVA ([5]; rate 0.0313 kg/ha): 7.0; Herbicidal rating CYPIR ([6]; 0.0313 kg/ha): 0.0; Herbicidal rating ORYSAT (rice tolerance) [7, 13]: 0.0; Herbicidal rating ORYSAT (rice tolerance) [7, 14]: 0.0; Herbicidal rating ORYSAT (rice tolerance) [7, 15]: 0.0; Herbicidal rating ORYSAT (rice tolerance) [7, 16]: 0.0
3 | CCOC(=O)CN1C(=O)C[S+]([O-])/C1=N/c1cc(-n2c(=O)cc(C(F)(F)F)n(C)c2=O)c(F)cc1Cl (centres unmarked) [Compound 45, 2-{{2-Chloro-5-[3,6-dihydro-3-methyl-2,6-dioxo-4-(trifluoromethyl)-1(2H)-pyrimidinyl]-4-fluoro-phenyl}imino}-4-oxo-3-thiazolidineacetic acid, ethyl ester, 1-oxide] | 0.0 | 2.0 | 5.0 | 0.0 | 0.0 | 4.0 | 4.0 | 7.0 | 7.0 | 7.0 | 9.0 | 9.0 | 3.0 | 7.0 | 7.0 | 9.0 | 9.0 | 9.0 | 0.0 | 9.0 | Herbicidal rating ORYSAT (rice tolerance) [1, 9]: 3.0; Herbicidal rating ORYSAT (rice tolerance) [1, 10]: 2.0; Herbicidal rating ORYSAT (rice tolerance) [1, 11]: 2.0; Herbicidal rating ORYSAT (rice tolerance) [1, 12]: 3.0; Preemergence herbicidal rating TRZAWR ([2]; rate 0.0156 kg/ha): 0.0; Herbicidal rating SAGPY ([3]; 0.0313 kg/ha): 0.0; Herbicidal rating ECHORC ([4]; 0.0313 kg/ha): 3.0; Herbicidal rating MOOVA ([5]; rate 0.0313 kg/ha): 7.0; Herbicidal rating CYPIR ([6]; 0.0313 kg/ha): 0.0; Herbicidal rating ORYSAT (rice tolerance) [7, 13]: 3.0; Herbicidal rating ORYSAT (rice tolerance) [7, 14]: 2.0; Herbicidal rating ORYSAT (rice tolerance) [7, 15]: 2.0; Herbicidal rating ORYSAT (rice tolerance) [7, 16]: 3.0; Preemergence herbicidal rating ABUTH ([8]; rate 0.0156 kg/ha): 0.0
4 | O=C(O)CC1SC(=Nc2cc(N3C(=O)C4=C(CCCC4)C3=O)c(F)cc2Cl)N(CC(=O)O)C1=O (centres unmarked) [Compound 48, 2-{[2-Chloro-5-(1-cyclohexene-1,2-dicarboximido)-4-fluorophenyl]imino}-4-oxo-3,5-thiazolidinediacetic acid] | 0.0 | 0.0 | 2.0 | – | 3.0 | 6.0 | – | 3.0 | 6.0 | – | 3.0 | 6.0 | – | 2.0 | 5.0 | 4.0 | 9.0 | 9.0 | 0.0 | 0.0 | Herbicidal rating ORYSAT (rice tolerance) [1, 11]: 4.0; Herbicidal rating ORYSAT (rice tolerance) [1, 12]: 6.0; Preemergence herbicidal rating TRZAWR ([2]; rate 0.0156 kg/ha): 0.0; Herbicidal rating ORYSAT (rice tolerance) [7, 15]: 4.0; Herbicidal rating ORYSAT (rice tolerance) [7, 16]: 6.0; Preemergence herbicidal rating ABUTH ([8]; rate 0.0156 kg/ha): 0.0
5 | Cn1c(C(F)(F)F)cc(=O)n(-c2cc(/N=C3/SCC(=O)N3CC(=O)O)c(Cl)cc2F)c1=O [Compound 52, 2-{{2-Chloro-5-[3,6-dihydro-3-methyl-2,6-dioxo-4-(trifluoromethyl)-1(2H)-pyrimidinyl]-4-fluoro-phenyl}imino}-4-oxo-3-thiazolidineacetic acid] | 0.0 | 2.0 | 5.0 | – | – | 0.0 | – | – | 0.0 | – | – | 4.0 | – | – | 2.0 | 9.0 | 9.0 | 9.0 | 0.0 | 9.0 | Herbicidal rating ORYSAT (rice tolerance) ([1]; in vivo): 0.0; Herbicidal rating ORYSAT (rice tolerance) ([7]; in vivo): 0.0

— patent publication US20020137929A1, “1 - (3-heterocyclylphenyl) isothiourea, -isourea, -guanidine and -amidine herbicidal agents” (Intellectual Property Department, BASF Aktiengesellschaft, priority 1998, published 2002)
